Our source for the IC50, Activity and Drug uptake values is ChEMBL document CHEMBL1139759, “Discovery and SAR studies of novel GlyT1 inhibitors” (Bioorg Med Chem Lett, 2007).

Data set [1] concerns the target T1, Sodium- and chloride-dependent glycine transporter 2 (Homo sapiens, UniProt Q9Y345).
T1 sequence (Q9Y345 whole entry): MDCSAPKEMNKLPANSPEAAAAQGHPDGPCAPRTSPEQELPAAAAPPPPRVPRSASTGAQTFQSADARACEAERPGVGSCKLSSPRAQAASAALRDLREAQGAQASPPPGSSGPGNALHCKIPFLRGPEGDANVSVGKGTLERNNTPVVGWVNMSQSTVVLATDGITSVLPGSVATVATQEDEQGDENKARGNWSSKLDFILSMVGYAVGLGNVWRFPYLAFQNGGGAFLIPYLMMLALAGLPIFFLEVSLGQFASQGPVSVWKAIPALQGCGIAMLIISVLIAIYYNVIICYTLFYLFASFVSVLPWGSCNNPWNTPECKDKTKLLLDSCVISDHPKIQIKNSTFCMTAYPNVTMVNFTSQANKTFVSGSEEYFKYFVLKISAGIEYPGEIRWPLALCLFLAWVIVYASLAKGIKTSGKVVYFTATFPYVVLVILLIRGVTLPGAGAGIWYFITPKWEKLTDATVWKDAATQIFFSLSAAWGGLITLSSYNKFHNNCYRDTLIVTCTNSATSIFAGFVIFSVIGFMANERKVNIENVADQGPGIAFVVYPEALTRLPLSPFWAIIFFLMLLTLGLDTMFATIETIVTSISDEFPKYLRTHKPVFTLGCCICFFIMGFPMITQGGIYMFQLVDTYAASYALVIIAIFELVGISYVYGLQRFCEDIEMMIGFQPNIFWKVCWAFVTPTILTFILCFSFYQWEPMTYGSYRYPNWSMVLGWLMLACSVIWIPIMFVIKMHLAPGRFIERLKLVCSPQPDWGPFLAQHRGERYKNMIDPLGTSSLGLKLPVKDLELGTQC
The experiment in a line: Inhibition of [14C]glycine reuptake at human GlyT2 expressed in BE(2)-C cells. It is filed as cell-based.

In data set [2] the test system is Rattus norvegicus. Kind of data set: Increase in glycine level of Sprague-Dawley rat cerebrospinal fluid at 30 mg/kg, sc. Format: functional. The note with it: route subcutaneous.
Data set [3] concerns Cerebrospinal fluid. The experiment in a line: Drug level in rat cerebrospinal fluid at 30 mg/kg, sc. The note with it: in vivo. The arrangement: dose 30 mg/kg, route subcutaneous. Format: ADME, organism-based.
Data set [4] has as its target T2, Sodium- and chloride-dependent glycine transporter 1 (Homo sapiens, UniProt P48067).
T2 sequence (P48067 whole entry): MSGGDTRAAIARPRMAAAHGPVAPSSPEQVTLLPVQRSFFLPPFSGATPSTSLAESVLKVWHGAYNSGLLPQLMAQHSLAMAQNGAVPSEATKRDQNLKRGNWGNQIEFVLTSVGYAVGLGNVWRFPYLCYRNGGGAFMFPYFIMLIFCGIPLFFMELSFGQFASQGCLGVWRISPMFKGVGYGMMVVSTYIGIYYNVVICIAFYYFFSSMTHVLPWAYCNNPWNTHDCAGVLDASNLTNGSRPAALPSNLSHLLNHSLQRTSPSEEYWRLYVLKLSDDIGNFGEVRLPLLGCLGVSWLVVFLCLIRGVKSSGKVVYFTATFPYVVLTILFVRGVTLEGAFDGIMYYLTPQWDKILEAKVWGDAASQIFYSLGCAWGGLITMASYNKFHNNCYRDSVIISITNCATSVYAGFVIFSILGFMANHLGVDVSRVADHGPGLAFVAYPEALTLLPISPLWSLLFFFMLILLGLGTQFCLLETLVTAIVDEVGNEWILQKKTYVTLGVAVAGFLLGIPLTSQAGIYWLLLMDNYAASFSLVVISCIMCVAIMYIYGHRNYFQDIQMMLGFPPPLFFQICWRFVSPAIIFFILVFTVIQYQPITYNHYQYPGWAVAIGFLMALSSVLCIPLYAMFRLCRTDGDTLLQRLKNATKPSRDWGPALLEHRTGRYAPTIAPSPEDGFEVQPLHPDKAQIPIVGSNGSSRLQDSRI
Kind of data set: Inhibition of [14C]glycine reuptake at human GlyT1 expressed in BE(2)-C cells. It is filed as cell-based.

For orientation: IC50 means the concentration that gives 50% inhibition. High values mean a need for much substance, low ones inhibition by little substance.

`CN(CC[C@@H](Oc1ccc(-c2ccccc2)cc1)c1ccc(F)cc1)CC(=O)O` displayed a half-maximal inhibitory concentration (IC50) in data set [1] above 30000 nM. For the same molecule, the Activity in data set [2] was 204%. For the same molecule, the Drug uptake in data set [3] amounted to 47 ng/mL.
Turning to `CN(CCOc1ccc(-c2ccc3c(c2)OCO3)cc1-c1ccccc1Cl)CC(=O)O`, the IC50 in data set [1] was above 30000 nM; in data set [4], 12 nM.
For the molecule `Cc1ccccc1-c1cc(-c2ccccc2)ccc1OCCN(C)CC(=O)O`, the IC50 in data set [1] is above 30000 nM; in data set [4], 56 nM.
As to `COc1ccccc1-c1cc(-c2ccccc2)ccc1OCCN(C)CC(=O)O`, the results for the IC50 in data set [1] and in data set [4] were above 30000 nM and 351 nM, respectively.
`CN(CCOc1ccc(-c2ccccc2)cc1-c1ccsc1)CC(=O)O`: the IC50 in data set [1] is above 30000 nM; in data set [4] it was 139 nM.
Taken in the same sequence, the figures for `CN(CCOc1ccc(-c2ccccc2Cl)cc1C(=O)c1cccs1)CC(=O)O` were above 30000 nM and 175 nM.
As to `CN(CCOc1ccc(-c2cccc(Cl)c2)cc1C(=O)c1cccs1)CC(=O)O`, the IC50 in data set [1] is above 30000 nM; in data set [4], 26 nM.
In the case of `Cc1ccccc1-c1ccc(OCCN(C)CC(=O)O)c(C(=O)c2cccs2)c1`, the IC50 was above 30000 nM in data set [1] and 632 nM in data set [4].
For `Cc1cccc(-c2ccc(OCCN(C)CC(=O)O)c(C(=O)c3cccs3)c2)c1`, the IC50 in data set [1] is above 30000 nM; in data set [4] it was 45 nM.
On to `Cc1ccc(-c2ccc(OCCN(C)CC(=O)O)c(C(=O)c3cccs3)c2)cc1`, for which the values for the IC50 in data set [1] and in data set [4] were above 30000 nM and 59 nM, respectively.
Taken in the same sequence, the figures for `COc1ccc(-c2ccc(OCCN(C)CC(=O)O)c(C(=O)c3cccs3)c2)cc1` were above 30000 nM and 27 nM.
`Cc1ccc(-c2ccc(OCCN(C)CC(=O)O)c(C(=O)c3cccs3)c2)cc1C`: the IC50 is above 30000 nM in data set [1] and 76 nM in data set [4].
On to `CN(CCOc1ccc(-c2ccccc2)cc1-c1nccs1)CC(=O)O`, for which the values for the IC50 in data set [1] and in data set [4] were above 30000 nM and 957 nM, respectively.
In the case of `COc1ccc(-c2ccc(OCCN(C)CC(=O)O)c(C(=O)c3cccs3)c2)cc1OC`, the IC50 in data set [1] is above 30000 nM; in data set [4], 834 nM.
Regarding `CN(CCOc1ccc(-c2ccc3c(c2)OCO3)cc1C(=O)c1cccs1)CC(=O)O`, the figures for the IC50 in data set [1] and in data set [4] were above 30000 nM and 19 nM, respectively.
In the case of `CN(CCOc1ccc(-c2ccccc2)cc1-c1cccc2ccccc12)CC(=O)O`, the IC50 in data set [1] was above 30000 nM; in data set [4], 496 nM.
Regarding `CN(CCOc1ccc(-c2ccccc2)cc1Cc1cccs1)CC(=O)O`, the IC50 is above 30000 nM in data set [1] and 40 nM in data set [4].
In the case of `CN(CCOc1ccc(-c2ccccc2)cc1-c1cccs1)CC(=O)O`, the concentration for half-maximal inhibition (IC50) is above 30000 nM in data set [1] and 70 nM in data set [4]. Further, the Activity in data set [2] was 196%. Further, the Drug uptake in data set [3] worked out at 113 ng/mL.
With `CN(CCOc1ccc(-c2ccccc2)cc1Cc1ccccc1)CC(=O)O`, the results for the IC50 in data set [1] and in data set [4] were above 30000 nM and 85 nM, respectively.
As to `CN(CCOc1ccc(-c2ccccc2)cc1-c1ccccc1)CC(=O)O`, the results for the IC50 in data set [1] and in data set [4] were above 30000 nM and 229 nM, respectively.
Regarding `CN(CCOc1ccc(-c2ccccc2)cc1C(=O)C1CCCCC1)CC(=O)O`, the values for the IC50 in data set [1] and in data set [4] were above 30000 nM and 70 nM, respectively.
Regarding `CN(CCOc1ccc(-c2ccccc2)cc1C1CCCCC1)CC(=O)O`, the IC50 in data set [1] is above 30000 nM; in data set [4], 251 nM.
Consider `CN(CCOc1ccc(-c2ccccc2)cc1-c1cccc(Cl)c1)CC(=O)O`, for which the IC50 was above 30000 nM in data set [1] and 674 nM in data set [4].
For the molecule `CN(CCOc1ccc(-c2ccccc2)cc1-c1ccccc1F)CC(=O)O`, the IC50 in data set [1] is above 30000 nM; in data set [4], 108 nM.
Regarding `COc1ccc(-c2ccc(OCCN(C)CC(=O)O)c(-c3ccccc3Cl)c2)cc1C`, the IC50 in data set [1] was above 30000 nM; in data set [4] it was 28 nM.
For the molecule `CN(CCOc1ccc(-c2ccc3c(c2)OCCO3)cc1-c1ccccc1Cl)CC(=O)O`, the IC50 in data set [1] is above 30000 nM; in data set [4] it was 14 nM.
As to `CN(CCOc1ccc(-c2ccc3c(c2)CCO3)cc1-c1cccs1)CC(=O)O`, the values for the concentration for half-maximal inhibition (IC50) in data set [1] and in data set [4] were above 30000 nM and 17 nM, respectively.
On to `CN(CCOc1ccc(-c2ccccc2)cc1-c1ccc(Cl)cc1)CC(=O)O`, for which the figures for the IC50 in data set [1] and in data set [4] were above 30000 nM and 965 nM, respectively.
Regarding `CN(CCOc1ccc(-c2ccc3c(c2)CCO3)cc1-c1ccccc1Cl)CC(=O)O`, the IC50 is above 30000 nM in data set [1] and 13 nM in data set [4].
`CN(CCOc1ccc(-c2ccc(Cl)cc2)cc1C(=O)c1cccs1)CC(=O)O`: the concentration for half-maximal inhibition (IC50) in data set [1] is above 30000 nM; in data set [4], 68 nM.
With `COc1cccc(-c2ccc(OCCN(C)CC(=O)O)c(C(=O)c3cccs3)c2)c1`, the IC50 in data set [1] is above 30000 nM; in data set [4], 104 nM.
On to `COc1ccc(-c2ccc(OCCN(C)CC(=O)O)c(C(=O)c3cccs3)c2)cc1C`, for which the IC50 is above 30000 nM in data set [1] and 18 nM in data set [4].
In the case of `CN(CCOc1ccc(-c2ccccc2)cc1CC1CCCCC1)CC(=O)O`, the IC50 in data set [1] is above 30000 nM; in data set [4], 289 nM.
With `CN(CCOc1ccc(-c2ccccc2)cc1C(=O)c1cccs1)CC(=O)O`, the IC50 in data set [1] was above 30000 nM; in data set [4], 45 nM. The Activity in data set [2] turned out to be 114%. In data set [3], this molecule yielded a Drug uptake of 15 ng/mL.
With `COc1ccc(-c2ccc(OCCN(C)CC(=O)O)c(-c3cccs3)c2)cc1C`, the values for the IC50 in data set [1] and in data set [4] were above 30000 nM and 161 nM, respectively.
Taken in the same sequence, the figures for `CN(CCOc1ccc(-c2ccc3c(c2)OCO3)cc1-c1cccs1)CC(=O)O` were above 30000 nM and 34 nM.
As to `CN(CCOc1ccc(C(F)(F)F)cc1C(=O)c1cccs1)CC(=O)O`, the IC50 was above 30000 nM in data set [1] and 702 nM in data set [4].
Taken in the same sequence, the figures for `CN(CCOc1ccc(-c2ccc3c(c2)OCCO3)cc1-c1cccs1)CC(=O)O` were above 30000 nM and 25 nM.
Regarding `CN(CCOc1ccc(-c2ccccc2)cc1C(=O)c1ccccc1)CC(=O)O`, the IC50 in data set [1] was above 30000 nM; in data set [4], 65 nM.
For the molecule `CN(CCOc1ccc(-c2ccccc2)cc1-c1ccccc1Cl)CC(=O)O`, the IC50 was above 30000 nM in data set [1] and 53 nM in data set [4]. The Activity in data set [2] came out at 155%. For the same molecule, in data set [3], the Drug uptake was 25 ng/mL.
